Measured values taken from patent publication US9326978B2, “A3 adenosine receptor allosteric modulators” (The United States of America, Represented by the Secretary, …, priority 2006, dated 2016).
Read-outs that look alike come from different tables or passages of the source.

Assays:
myeloid system = test: Effect on the myeloid system of naïve mice (differential blood count); assay type: in vivo; conditions: naïve ICR mice, orally 100 μg/kg thrice daily for two days; blood 24 and 48 hours after last administration; vs control
Protocol: A stock solution of imidazoquinoline derivative 45 was prepared by dissolving the same in DMSO. Further dilutions for treatment were performed in PBS. As a control, an equivalent amount of DMSO in PBS was used.
To test the effect of imidazoquinoline derivative 45 on the myeloid system, the compound was orally administered at a dose of 100 μg/kg, thrice daily to ICR mice, for two consecutive days. Blood samples were withdrawn 24 and 48 hours after the last drug administration. A differential blood count was performed.

hA2BAR = hA2BAR (Homo sapiens (Human), UniProt P29275); test: Effect on NECA-induced cyclic AMP accumulation at A2B receptor; note: NECA (150 nM)-induced cyclic AMP accumulation; assay type: cell-based; conditions: read-out: hA2BAR % inhib. at 10 μM
human A3ARs [1] = target: T1, human A3ARs (Homo sapiens (Human), UniProt P0DMS8); test: Cyclic AMP accumulation assay, efficacy at hA3AR; assay type: cell-based; conditions: compared to maximal effect by 2-Cl-IB-MECA alone (control = 100%)
Protocol: Intracellular cyclic AMP levels were measured with a competitive protein binding method (Nordstedt and Fredholm, 1990). CHO cells that expressed recombinant human A3ARs were harvested by trypsinization. After centrifugation and resuspension in medium, cells were plated in 24-well plates in 0.5 ml medium. After 24 hr, the medium was removed and cells were washed three times with 1 ml DMEM, containing 50 mM HEPES, pH 7.4. Cells were then treated with agonists and/or test compounds in the presence of rolipram (10 μM) and adenosine deaminase (3 units/ml). After 45 min forskolin (10 μM) was added to the medium, and incubation was continued an additional 15 min. The reaction was terminated by removing the supernatant, and cells were lysed upon the addition of 200 μL of 0.1 M ice-cold HCl. The cell lysate was resuspended and stored at −20° C. For determination of cyclic AMP production, protein kinase A (PKA) was incubated with [^3H]cyclic AMP (2 nM) in K2HPO4/EDTA buffer (K2HPO4, 150 mM; EDTA, 10 mM), 20 μL of the cell lysate, and 30 μL 0.1 M HCl or 50 μL of cyclic AMP solution (0-16 pmol/200 μL for standard curve). Bound radioactivity was separated by rapid filtration through Whatman GF/C filters and washed once with cold buffer. Bound radioactivity was measured by liquid scintillation spectrometry.

[2] = tested on: adjuvant induced arthritis; test: Adjuvant induced arthritis (AIA) model; assay type: in vivo; conditions: AIA rats, orally twice daily 100 μg/kg from onset of disease; vs control
Protocol: Adjuvant induced arthritis model (model for rheumatoid arthritis (RA)) was established in rats by immunizing the animals with an emulsion contacting Mycobacterium tuberculosis in Freund's adjuvant (Animal Models for Autoimmune and Inflammatory disease:Adjuvant Arthritis in the Rat. Current Protocols in Immunology, Supplement 19, page 15.4.2.). Treatment with imidazoquinoline derivative 45 was initiated upon onset of disease. The imidazoquinoline derivative 45 was administered orally twice daily at a dose of 100 μg/kg.
Evaluation of disease development was carried out daily, starting upon onset of disease until the end of the study. Intensity of arthritis was scored by grading each paw from 0-4 on erythema, swelling and deformity of the joint, every day: 0=no erythema or swelling; 1=slight erythema or swelling of one of the toes or fingers; 2=erythema and swelling of more than one toe or finger; 3=erythema and swelling of the ankle or wrist; 4=complete erythema and swelling of toes or fingers and ankles or wrist, and inability to bend the ankle or wrist. All scores of the four legs from each rat are added to give up to a maximum arthritic score of 16.

human A3ARs [3] = target: T1, human A3ARs; test: Dissociation kinetics of [125I]I-AB-MECA from human A3ARs; assay type: binding
Protocol: The dissociation of [^125I]I-AB-MECA was measured as follows. Membranes (20 μg) were preincubated at 25° C. with 0.5 nM [^125I]I-AB-MECA, in a total volume of 100 μl of Tris-HCl buffer (50 mM, pH 8.0) containing 10 mM MgCl2, and 1 mM EDTA for 60 min. The dissociation was then initiated by the addition of 3 μM Cl-IB-MECA with or without allosteric modulators. The time course of dissociation of total binding was measured by rapid filtration at appropriate time intervals. Nonspecific binding was measured after 60-min incubation in the presence of 3 μM Cl-IB-MECA. Further assay was as described above.

human A1AR = human A1AR (Homo sapiens (Human), UniProt P30542); test: Binding assay to the human A1AR ([3H]R-PIA); conditions: 1 h, 10 μM, CHO cells, read-out: hA1AR % displ. at 10 μM
Protocol: (§1) CHO (Chinese hamster ovary) cells expressing the recombinant human ARs (HEK-293 cells were used for the human A2AAR) were cultured in DMEM and F12 (1:1) supplemented with 10% fetal bovine serum, 100 units/ml penicillin, […] streptomycin and 2 μmol/ml glutamine. Cells were harvested by trypsinization. After homogenization and suspension, cells were centrifuged at 500 g for 10 min, and the pellet was re-suspended in 50 mM Tris.HCl buffer (pH 7.4) containing 10 mM MgCl2. The suspension was homogenized with an electric homogenizer for 10 sec, and was then re-centrifuged at 20,000 g for 20 min at 4° C. The resultant pellets were resuspended in buffer in the presence of 3 Units/mL adenosine deaminase, and the suspension was stored at −80° C. until the binding experiments. The protein concentration was measured using the Bradford assay.
(§2) For binding to the human A1AR, [^3H]R-PIA (2 nM) was incubated with membranes (40 μg/tube) from CHO cells stably expressing the human A1AR at 25° C. for 60 min in 50 mM Tris.HCl buffer (pH 7.4; MgCl2, 10 mM) in a total assay volume of 200 μL. Nonspecific binding was determined using 10 μM of N^6-cyclopentyladenosine. For human A2A AR binding, membranes (20 μg/tube) from HEK-293 cells stably expressing the human A2A AR were incubated with 15 nM [^3H]CGS21680 at 25° C. for 60 min in 200 μL of 50 mM Tris.HCl, pH 7.4, containing 10 mM MgCl2. N-5′-ethyluronamidoadenosine (10 μM) was used to define nonspecific binding. Reaction was terminated by filtration with GF/B filters.

human A2A AR = human A2A AR (Homo sapiens (Human), UniProt P29274); test: Binding assay to the human A2A AR ([3H]CGS21680); conditions: 10 μM
Protocol: as §1, §2

Sequence of human A1AR (P30542 whole entry): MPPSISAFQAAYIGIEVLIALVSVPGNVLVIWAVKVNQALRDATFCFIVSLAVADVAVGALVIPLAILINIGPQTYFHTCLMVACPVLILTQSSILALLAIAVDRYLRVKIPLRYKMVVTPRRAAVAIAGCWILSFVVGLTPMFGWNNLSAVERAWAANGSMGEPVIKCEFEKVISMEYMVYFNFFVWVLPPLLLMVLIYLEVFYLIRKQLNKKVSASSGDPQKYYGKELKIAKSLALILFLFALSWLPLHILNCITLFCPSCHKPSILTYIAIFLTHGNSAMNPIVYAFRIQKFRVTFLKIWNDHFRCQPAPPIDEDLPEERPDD
Sequence of human A2A AR (P29274 whole entry): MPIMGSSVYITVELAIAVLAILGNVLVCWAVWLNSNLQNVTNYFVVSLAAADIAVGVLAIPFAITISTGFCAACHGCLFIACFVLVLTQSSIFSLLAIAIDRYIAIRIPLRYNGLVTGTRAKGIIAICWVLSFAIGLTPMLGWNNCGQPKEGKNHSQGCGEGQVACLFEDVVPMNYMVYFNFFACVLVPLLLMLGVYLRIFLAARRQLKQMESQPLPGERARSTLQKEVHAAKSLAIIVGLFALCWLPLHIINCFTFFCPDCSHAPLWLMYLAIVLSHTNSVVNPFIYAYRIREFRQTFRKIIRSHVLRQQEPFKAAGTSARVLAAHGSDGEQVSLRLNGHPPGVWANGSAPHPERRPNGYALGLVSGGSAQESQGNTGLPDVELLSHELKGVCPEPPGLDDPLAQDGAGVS
T1 sequence (P0DMS8 whole entry): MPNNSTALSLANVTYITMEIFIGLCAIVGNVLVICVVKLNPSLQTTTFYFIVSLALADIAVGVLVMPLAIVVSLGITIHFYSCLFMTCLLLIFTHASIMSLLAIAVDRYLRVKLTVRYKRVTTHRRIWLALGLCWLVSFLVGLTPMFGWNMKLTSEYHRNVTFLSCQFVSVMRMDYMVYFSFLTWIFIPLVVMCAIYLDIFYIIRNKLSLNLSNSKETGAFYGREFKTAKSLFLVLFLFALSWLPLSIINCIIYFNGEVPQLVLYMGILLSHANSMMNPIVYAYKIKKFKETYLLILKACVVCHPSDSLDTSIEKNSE
Sequence of hA2BAR (P29275 whole entry): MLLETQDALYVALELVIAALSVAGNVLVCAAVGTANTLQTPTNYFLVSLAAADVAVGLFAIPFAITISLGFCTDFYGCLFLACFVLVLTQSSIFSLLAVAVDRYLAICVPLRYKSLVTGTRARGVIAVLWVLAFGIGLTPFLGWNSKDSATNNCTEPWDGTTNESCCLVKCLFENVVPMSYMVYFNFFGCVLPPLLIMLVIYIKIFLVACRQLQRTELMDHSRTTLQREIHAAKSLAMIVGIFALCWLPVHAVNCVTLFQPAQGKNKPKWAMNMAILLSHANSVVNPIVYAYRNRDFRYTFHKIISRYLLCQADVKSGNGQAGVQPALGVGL

## Clc1ccc(Nc2nc3ccccc3c3[nH]c(C4CCCCC4)nc23)cc1Cl [Compound 45, N-(3,4-Dichloro-phenyl)-2-cyclohexyl-1H-imidazo[4,5-c]quinolin-4-amine]
Myeloid system
  number of neutrophils: increased
  number of white blood cells (WBC): increased
hA2BAR
  inhibition at 10 µM: -5.6%
Human A3ARs [1]
  % Increase of efficacy at hA3AR at 10 μM: 145 ± 7%
[2]
  clinical score (arthritic score, max 16): reduction in clinical score
Human A3ARs [3]; 0.5 h, % decrease of dissociation at 30 min, residual binding of [125I]AB-MECA after 30 min = 100%, Table 2, read-out: hA3AR Ag. Dissociation at 10 μM
  activity at 10 µM: 173 ± 5%
Human A3ARs [3]; % decrease of [125I]I-AB-MECA dissociation at 30 min (control = 100%), Table 3
  hA3R Ag. Dissociation (%) at 10 μM: 173 ± 5%
Human A1AR; [3H]R-PIA, Table 3
  inhibition at 10 µM: < 10%
Human A1AR; [3H]R-PIA, Table 4
  inhibition at 10 µM: < 10%
Human A1AR; [3H]R-PIA (2.0 nM), Table 2
  inhibition at 10 µM: -2%
Human A2A AR; [3H]CGS 21680 (15 nM), HEK293 cells, Table 2
  hA2AAR % displ. at 10 μM: −1%
Human A2A AR; [3H]CGS 21680, Table 3
  hA2AAR % displ. at 10 μM: <10%
Human A2A AR; [3H]CGS 21680, Table 4
  hA2AAR % displ. at 10 μM: <10%
